Measured values from US4316955A, “Enzymatic deesterification of cephalosporin methyl esters” (Eli Lilly and Company, priority 1980, dated 1982).

Assays:
[1] = system: A49492 (Streptomyces capillispira); assay: Antibiotic disk sensitivity test of A49492; further: key: +: a plus indicates that a zone of inhibition was formed; -: a minus sign indicates that there was no inhibition zone; type: cell-based; conditions: ISP No. 2 agar seeded with 2% vegetative inoculum; amount per disk: Erythromycin 15 μg, Keflin 30 μg, Lincomycin 2 μg, Nystatin 100 U, Polymixin B 300 U, Streptomycin 10 μg, Tetracycline 30 μg, Vancomycin 5 μg
Procedure: Sodium chloride and sucrose tolerance were measured using ISP No. 2 agar. Antibiotic sensitivity was determined with sensitivity discs placed onto the surface of ISP No. 2 agar plates seeded with 2% vegetative inoculum.
In the table below, the column headed "Amount" indicates the amount of the antibiotic deposited on each disk.

[2] = system: enzyme produced by Streptomyces capillispira; assay: Rate of enzymatic deesterification of cephalosporin methyl esters (titrimetric / spot-plate); type: biochemical
Procedure: Another detection method, called the spot plate method, was carried out by pipetting a carefully measured amount, usually 10 μl., of the mixture to be analyzed onto a filter paper sheet which had small zones outlined by lacquer so that liquids placed on the zones were isolated from each other. If the substrate compound was a nucleus ester, so that acylation was necessary, each zone was also spotted with 10 μl. of 2% sodium bicarbonate solution, and 20 μl. of 2.5% phenoxyacetyl chloride in petroleum ether. The spots were air-dried, and the paper sheets were overlaid on the agar surface of an assay plate which had been seeded with a spore suspension of B. subtilis. The sheets were left on the agar plates for about 45 minutes, and were then removed and the agar plates were incubated at 25° overnight. The sizes of the zones of inhibition were then measured, and the amount of cephalosporin acid in the sample was determined by comparison with the sizes of the zones produced by known amounts of the cephalosporin acid which was the product of the deesterification.
The above biological analytical methods are useful both for unpurified fermentation mixtures, and for purified enzyme preparations. Purified preparations are readily analyzed by titrimetric methods which determine the amount of acid produced by measuring the amounts of base needed to maintain constant pH during the reaction. Thus, the deesterification reaction is easily monitored with an automatic titrator by adding the enzyme preparation to an appropriate substrate solution and following the course of deesterification by the amount of base added to the sample by the automatic titrator.
The activity of the enzyme preparations in the following examples is described as a rate, usually measured in terms of (moles of substrate deesterified)/(mg. of protein or cells)(minute). In some instances, the activity of the enzyme was described in other ways, and such instances are explained in the pertinent examples.
The substrate against which enzyme activity was measured was methyl 7-amino-3-methyl-3-cephem-4-carboxylate unless otherwise stated.
In this experiment, the enzyme preparation of Example 16 was used to deesterify methyl cephalexin, and the rate of hydrolysis was measured by pH-stat titration. Reaction mixtures were prepared as shown in Example 16, except that 1 ml. of the enzyme preparation and 2 ml. of substrate solution were used, so that the final reaction mixture contained 2.5 mg./ml. of protein.
A purified enzyme preparation, prepared substantially as described in Example 15 above, and containing 0.66 mg./ml. of protein was used to deesterify methyl 7-amino(phenyl)acetamido-3-chloro-3-cephem-4-carboxylate(methyl cefaclor). […]

[3] = system: enzyme produced by Streptomyces capillispira; assay: Deesterification shown by paper chromatography and bioautography; type: biochemical; conditions: 3-day culture, 30°, 16-20 hours; chromatogram acylated with phenoxyacetyl chloride; plate seeded with B. subtilis
Procedure: The usual method made use of filter paper chromatography, with 4/1 acetonitrile/water as the solvent.
If the substrate ester was a cephalosporin nucleus ester, having only an amino group at the 7-position, then the amount of acid could not be measured directly, because the nucleus acid is not active against the test organism.
The inoculated tube was shaken at 30° for 3 days, and then 4 ml. of the culture was transferred to a 50-ml. flask. To the flask was added 1 ml. of a filter-sterilized substrate solution containing 5 mg./ml. of methyl 7-amino-3-methyl-3-cephem-4-carboxylate at pH 7.0.
The flask was then incubated with shaking at 30° for 16-20 hours to allow the enzyme to deesterify the substrate compound.
The supernatant from the centrifugation was evaluated by paper chromatography as described above, using 4/1 acetonitrile/water as the solvent.
A substrate solution containing about 2 mg./ml. of methyl 7-amino(phenyl)acetamido-3-methyl-3-cephem-4-carboxylate (methyl cephalexin) was prepared in water, at pH 7.2. […] The mixture was shaken at 30° for 4 hours, and was then analyzed by paper chromatography, overlaying the chromatograms on nutrient agar plates seeded with Sarcina lutea.

| Molecule | Result (zone of inhibition, disk sensitivity) [1] | other results |
| --- | --- | --- |
| C[C@@H]1[C@H](O)[C@@H](C)/C=C/C=C/CC/C=C/C=C/C=C/C=C/C(O[C@H]2O[C@H](C)[C@@H](O)[C@H](N)[C@@H]2O)CC2O[C@](O)(CC(O)C(O)CCC(O)CC(O)CC(O)CC(=O)O[C@H]1C)CC(O)C2C(=O)O (stereo partly shown) [Nystatin] | - |  |
| CC(=O)OCC1=C(C(=O)O)N2C(=O)[C@@H](NC(=O)Cc3cccs3)[C@H]2SC1 [Keflin] | - |  |
| COC(=O)C1=C(C)CS[C@@H]2C(N)C(=O)N12 (stereo partly shown) [methyl 7-amino-3-methyl-3-cephem-4-carboxylate] |  | Km value for the enzyme [2]: about 2.3 mg./ml.; lowest reaction rate ([2]; 15°, pH 8.0, Sephacryl-purified enzyme, automatic titrator, corrected for non-enzymatic hydrolysis): 1e-05 mol/min (liter); highest reaction rate ([2]; 30°, pH 8.0, Sephacryl-purified enzyme, automatic titrator, corrected for non-enzymatic hydrolysis): 1.9×10^-5 moles of ester hydrolyzed/(minute) (liter of reaction mixture); activity of cell sonicate supernatant ([2]; supernatant containing 14.4 mg./ml. of protein, Example 15): 2.2×10^-5 moles of ester hydrolyzed/(minute) (liter); deesterification in culture, zone of inhibition after acylation [3]: zone of inhibition |
| CN[C@H](CC(C)C)C(=O)N[C@H]1C(=O)N[C@@H](CC(N)=O)C(=O)N[C@H]2C(=O)N[C@H]3C(=O)N[C@H](C(=O)N[C@H](C(=O)O)c4cc(O)cc(O)c4-c4cc3ccc4O)[C@H](O)c3ccc(c(Cl)c3)Oc3cc2cc(c3O[C@@H]2O[C@H](CO)[C@@H](O)[C@H](O)[C@H]2O[C@H]2C[C@](C)(N)[C@H](O)[C@H](C)O2)Oc2ccc(cc2Cl)[C@H]1O [Vancomycin] | + |  |
| [H]/N=C(/N)N[C@H]1[C@H](O)[C@@H](O)[C@H](O[C@@H]2O[C@@H](C)[C@](O)(C=O)[C@H]2O[C@@H]2O[C@@H](CO)[C@H](O)[C@@H](O)[C@@H]2NC)[C@@H](N/C(N)=N\[H])[C@@H]1O [Streptomycin] | + |  |
| Polymixin B | - |  |
| CN(C)C1C(=O)C(C(N)=O)=C(O)C2(O)C(=O)C3=C(O)c4c(O)cccc4C(C)(O)C3CC12 (stereo not shown) [Tetracycline] | + |  |
| CC[C@H]1OC(=O)[C@H](C)[C@@H](O[C@H]2C[C@@](C)(OC)[C@@H](O)[C@H](C)O2)[C@H](C)[C@@H](O[C@@H]2O[C@H](C)C[C@H](N(C)C)[C@H]2O)[C@](C)(O)C[C@@H](C)C(=O)[C@H](C)[C@@H](O)[C@]1(C)O [Erythromycin] | - |  |
| CCC[C@@H]1C[C@@H](C(=O)N[C@@H]([C@H]2O[C@H](SC)[C@H](O)[C@@H](O)[C@H]2O)[C@@H](C)O)N(C)C1 [Lincomycin] | - |  |
